Earlier results as cited in PMC8513935.

Tests used:
[1] = experimental, compiled by the authors from the literature (the ESI cites the sources)
[2] = derived by the authors as gas->solvent minus gas->water (a hypothetical dry solvent; the ESI), not a two-phase measurement; settings: 25 C

| SMILES | log K of transfer, gas to solvent ([1]; Hexadecane, 25 C) [log10 K] | log K of transfer, gas to solvent ([1]; Water, 25 C) [log10 K] | further results |
| --- | --- | --- | --- |
| NC1CCCCC1 | 3.79 | 3.37 | log K of transfer, water to solvent ([2]; Hexadecane): 0.426 log10 K |
| CCCCCCCCCCCCCCCCCO | 9.16 | 1.9 | – |
| CC1CCCCN1 (stereo not shown) | 3.23 | 3.15 | – |
| C[C@@H]1CCCC[C@@H]1C | 3.85 | -1.17 | – |
| C1C2CC3CC1CC(C2)C3 | 4.93 | 0.12 | – |
| CCCCCCCCCCCCCCCCCCCCO | 10.7 | 1.54 | log K of transfer, gas to solvent ([1]; Decan-1-ol, 25 C): 12 log10 K; log K of transfer, gas to solvent ([1]; Hexan-1-ol, 25 C): 12.1 log10 K; log K of transfer, gas to solvent ([1]; Octan-1-ol, 25 C): 12.1 log10 K; log K of transfer, gas to solvent ([1]; Propan-2-ol, 25 C): 11.9 log10 K; log K of transfer, water to solvent ([2]; Decan-1-ol): 10.5 log10 K; log K of transfer, water to solvent ([2]; Hexadecane): 9.12 log10 K; log K of transfer, water to solvent ([2]; Hexan-1-ol): 10.5 log10 K; log K of transfer, water to solvent ([2]; Octan-1-ol(dry)): 10.5 log10 K; log K of transfer, water to solvent ([2]; Propan-2-ol): 10.3 log10 K |
| CNC(C)=O | 2.97 | 6.88 | log K of transfer, water to solvent ([2]; Hexadecane): -3.9 log10 K |
| CNC=O | 2.86 | 6.57 | log K of transfer, gas to solvent ([1]; Propanone, 25 C): 5.39 log10 K |
| Cc1ccc(C)nc1 | 3.98 | 3.46 | – |
| CCCF | 1.25 | -0.24 | – |
| CCCCC(C)CC (stereo not shown) | 3.51 | -2.18 | – |
| CCCCNCCCC | 4.35 | 2.38 | log K of transfer, water to solvent ([2]; Hexadecane): 1.97 log10 K |
| CCCCCF | 2.44 | -0.21 | log K of transfer, water to solvent ([2]; Hexadecane): 2.65 log10 K |
| C[C@H]1CC[C@H](C)CC1 | 3.64 | -1.4 | – |
| C=CCCCCCCCC | 4.53 | -1.64 | – |
| CCCCCN | 3.14 | 3 | log K of transfer, water to solvent ([2]; Hexadecane): 0.139 log10 K |
| CCCC(C)(C)C | 2.79 | -2.11 | – |
| CCCCCCCCCCCO | 6.12 | 2.5 | log K of transfer, gas to solvent ([1]; Decan-1-ol, 25 C): 7.53 log10 K |
| CN(C)C=O | 3.17 | 5.73 | log K of transfer, gas to solvent ([1]; Butanone, 25 C): 4.7 log10 K; log K of transfer, gas to solvent ([1]; Octan-1-ol, 25 C): 4.38 log10 K; log K of transfer, gas to solvent ([1]; Propanone, 25 C): 4.71 log10 K; log K of transfer, gas to solvent ([1]; Tetrahydrofuran, 25 C): 4.39 log10 K; log K of transfer, water to solvent ([2]; Acetone): -1.02 log10 K; log K of transfer, water to solvent ([2]; Butanone): -1.03 log10 K; log K of transfer, water to solvent ([2]; Hexadecane): -2.56 log10 K; log K of transfer, water to solvent ([2]; Octan-1-ol(dry)): -1.35 log10 K; log K of transfer, water to solvent ([2]; Tetrahydrofuran): -1.34 log10 K |
| O=C1CCCCCCC1 | 4.98 | 3.38 | – |
| CCCCCCCCCCCCCCCCCCO | 9.66 | 1.78 | log K of transfer, gas to solvent ([1]; Decan-1-ol, 25 C): 10.9 log10 K; log K of transfer, gas to solvent ([1]; Di-n-butyl ether, 25 C): 10.6 log10 K; log K of transfer, gas to solvent ([1]; Diethyl Ether, 25 C): 11 log10 K; log K of transfer, gas to solvent ([1]; Hexan-1-ol, 25 C): 10.9 log10 K; log K of transfer, gas to solvent ([1]; Octan-1-ol, 25 C): 10.9 log10 K; log K of transfer, gas to solvent ([1]; Propan-2-ol, 25 C): 10.9 log10 K; log K of transfer, water to solvent ([2]; Decan-1-ol): 9.12 log10 K; log K of transfer, water to solvent ([2]; Di-n-butyl ether): 8.85 log10 K; log K of transfer, water to solvent ([2]; Diethyl Ether): 9.2 log10 K; log K of transfer, water to solvent ([2]; Hexadecane): 7.88 log10 K; log K of transfer, water to solvent ([2]; Hexan-1-ol): 9.16 log10 K; log K of transfer, water to solvent ([2]; Octan-1-ol(dry)): 9.15 log10 K; log K of transfer, water to solvent ([2]; Propan-2-ol): 9.12 log10 K |
| Cc1ccncc1C | 4.31 | 3.83 | – |
| OC1CCCC1 | 3.24 | 4.03 | log K of transfer, gas to solvent ([1]; Propanone, 25 C): 4.6 log10 K |
| CCCCC(C)(C)O | 3.68 | 3.06 | – |
| Fc1ccccc1Cl | 3.64 | 0.72 | – |

| SMILES | log K of transfer, gas to solvent ([1]; Hexadecane, 25 C) [log10 K] | log K of transfer, gas to solvent ([1]; Water, 25 C) [log10 K] | further results |
| --- | --- | --- | --- |
| CCCCCc1ccccc1 | 5.23 | 0.17 | log K of transfer, water to solvent ([2]; Hexadecane): 5.06 log10 K |
| CSC | 2.04 | 1.18 | log K of transfer, gas to solvent ([1]; Hexane, 25 C): 2.17 log10 K |
| C1CCSC1 | 3.06 | 1.66 | – |
| CCCCCCCN | 4.15 | 2.78 | log K of transfer, water to solvent ([2]; Hexadecane): 1.37 log10 K |
| CCCCCCCC(C)C | 4.45 | -2.27 | – |
| N | 0.319 | 3.19 | log K of transfer, gas to solvent ([1]; 2-Methylpropan-1-ol, 25 C): 1.86 log10 K; log K of transfer, gas to solvent ([1]; Butan-1-ol, 25 C): 1.76 log10 K; log K of transfer, gas to solvent ([1]; Butanone, 25 C): 1.42 log10 K; log K of transfer, gas to solvent ([1]; CCl4, 25 C): 0.79 log10 K; log K of transfer, gas to solvent ([1]; Chlorobenzene, 25 C): 0.999 log10 K; log K of transfer, gas to solvent ([1]; Chloroform, 25 C): 1.77 log10 K; log K of transfer, gas to solvent ([1]; Ethanol, 25 C): 2.01 log10 K; log K of transfer, gas to solvent ([1]; Methanol, 25 C): 2.26 log10 K; log K of transfer, gas to solvent ([1]; Propan-1-ol, 25 C): 1.76 log10 K; log K of transfer, gas to solvent ([1]; Propan-2-ol, 25 C): 1.74 log10 K; log K of transfer, gas to solvent ([1]; Propanone, 25 C): 1.48 log10 K |
| CCSCC | 3.02 | 1.07 | log K of transfer, gas to solvent ([1]; Chloroform, 25 C): 4.69 log10 K; log K of transfer, water to solvent ([2]; Chloroform): 3.62 log10 K |
| CC(C)(C)C1CCCCC1 | 4.6 | -1.28 | – |
| CCCN | 2.14 | 3.22 | log K of transfer, gas to solvent ([1]; 1,2-Dichloroethane, 25 C): 2.96 log10 K; log K of transfer, gas to solvent ([1]; Benzene, 25 C): 2.7 log10 K; log K of transfer, gas to solvent ([1]; CCl4, 25 C): 2.63 log10 K; log K of transfer, gas to solvent ([1]; Chlorobenzene, 25 C): 2.63 log10 K; log K of transfer, gas to solvent ([1]; Chloroform, 25 C): 3.47 log10 K; log K of transfer, gas to solvent ([1]; Cyclohexane, 25 C): 2.24 log10 K; log K of transfer, gas to solvent ([1]; Di-n-butyl ether, 25 C): 2.14 log10 K; log K of transfer, gas to solvent ([1]; Hexane, 25 C): 2.26 log10 K; log K of transfer, gas to solvent ([1]; Toluene, 25 C): 2.57 log10 K |
| Oc1ccc(F)cc1 | 3.84 | 4.54 | log K of transfer, gas to solvent ([1]; 1,2-Dichloroethane, 25 C): 5.25 log10 K; log K of transfer, gas to solvent ([1]; CCl4, 25 C): 4.28 log10 K |
| CC(C)F | 1.15 | -0.364 | – |
| Cc1ccnc(C)c1 | 4 | 3.57 | – |
| Fc1ccc(Cl)cc1 | 3.55 | 0.63 | – |
| CCNC(C)=O | 3.84 | 6.72 | – |
| Fc1cccc(Cl)c1 | 3.53 | 0.65 | – |
| CC1CCCCC1=O (stereo not shown) | 4.05 | 3.07 | – |
| CCCCCCCCCCCCCCCCCCCO | 10.2 | 1.66 | – |
| CCCSCCC | 4.01 | 0.94 | – |
| CCCCCCCCCCCCCCO | 7.63 | 2.26 | log K of transfer, gas to solvent ([1]; Decan-1-ol, 25 C): 8.88 log10 K; log K of transfer, gas to solvent ([1]; Hexan-1-ol, 25 C): 8.94 log10 K; log K of transfer, gas to solvent ([1]; Propan-2-ol, 25 C): 9.05 log10 K |
| CCCC1CCCCC1 | 4.31 | -1.32 | – |
| CN1CCCCC1=O | 3.97 | 4.91 | – |
| CCOC | 1.59 | 1.54 | – |
| CCCCC1CCCCC1 | 4.8 | -1.44 | – |
| CC1CCCNC1 (stereo not shown) | 3.23 | 3.16 | – |
| CCCCCC1CCCC1 | 4.6 | -1.87 | – |

| SMILES | log K of transfer, gas to solvent ([1]; Hexadecane, 25 C) [log10 K] | log K of transfer, gas to solvent ([1]; Water, 25 C) [log10 K] | further results |
| --- | --- | --- | --- |
| CCCCCCCCCCCCCO | 7.13 | 2.38 | – |
| CC(=O)C1CCCCC1 | 4.62 | 3.28 | – |
| CCCC(C)CC (stereo not shown) | 3.04 | -1.99 | – |
| CN1CCCC1=O | 3.83 | 5.74 | – |
| CCCCNC(C)=O | 4.58 | 6.57 | – |
| C1CCCCCCC1 | 4.33 | -0.63 | – |
| O=C1CCCCCC1 | 4.37 | 3.42 | – |
| OC1CCCCCC1 | 4.4 | 4.02 | – |
| CC(C)CCC(C)(C)C | 3.57 | -2.15 | – |
| CCCCCCC(C)C | 3.96 | -2.15 | – |
| COC1CCCCC1 | 3.86 | 2.43 | – |
| CCCCCCCCN | 4.6 | 2.68 | – |
| CCCCN(C=O)CCCC | 5.62 | 4.34 | – |
| CCCCCCCCCCCCCCCO | 8.14 | 2.14 | log K of transfer, gas to solvent ([1]; Di-n-butyl ether, 25 C): 9.07 log10 K |
| OC1CCCCCCC1 | 5.05 | 3.81 | – |
| CCCC(C)(C)O | 3.24 | 3.25 | – |
| CC(=O)CC(C)C | 3.09 | 2.24 | – |
| C=CCCCCCCCCC | 5.02 | -1.75 | – |
| CCCC(=O)CC | 3.27 | 2.41 | – |
| CC1CCNCC1 | 3.23 | 3.15 | – |
| CCF | 0.751 | -0.3 | log K of transfer, gas to solvent ([1]; Tetrahydrofuran, 25 C): 1.31 log10 K |
| Cc1cccnc1C | 4.04 | 3.54 | – |
| C=CCCCCCCCCCC | 5.51 | -1.87 | – |
